Assay: Inhibition of recombinant Toxoplasma gondii DXR catalytic domain (68 to 513) expressed in Escherichia coli BL21 using DXP as substrate after 10 mins by Uv-spectrophotometric analysis
Type: cell-free

SMILES | Ki
O=P(O)(O)Cc1ccc(-c2ccccc2)cn1 | 2100 nM
O=CN(O)CCC(c1ccc(Cl)c(Cl)c1)P(=O)(O)O (stereo unspecified) | 77 nM
CC(=O)N(O)CCC(c1ccc(Cl)c(Cl)c1)P(=O)(O)O (stereo unspecified) | 220 nM
O=CN(O)CCC(c1cccnc1)P(=O)(O)O (stereo unspecified) | 55 nM
O=CN(O)CCC(c1ccncc1)P(=O)(O)O (stereo unspecified) | 79 nM
CC(=O)N(O)CCC(c1cccnc1)P(=O)(O)O (stereo unspecified) | 970 nM
CC(=O)N(O)CCC(c1ccncc1)P(=O)(O)O (stereo unspecified) | 530 nM
O=c1ccc(-c2ccccc2)cn1O [1-HYDROXY-5-PHENYLPYRIDIN-2(1H)-ONE] | 25600 nM
O=CN(O)CCCP(=O)(O)O [FOSMIDOMYCIN] | 90 nM
CC(=O)N(O)CCCP(=O)(O)O [FR-900098] | 48 nM
O=P(O)(O)Cc1ccccn1 [PYRIDIN-2-YLMETHYLPHOSPHONIC ACID] | 4100 nM

Reference: ChEMBL document CHEMBL2346498, “Expression, characterization and inhibition of Toxoplasma gondii 1-deoxy-D-xylulose-5-phosphate reductoisomerase” (Bioorg Med Chem Lett, 2013)
